From ChEMBL document CHEMBL1909046, “DrugMatrix in vitro pharmacology data”
pIC50: −log10 of the molar value.

Legend:
[1] = target: T1, Alpha-1A adrenergic receptor (Rattus norvegicus, UniProt P43140); assay: DRUGMATRIX: Alpha-1A adrenergic receptor radioligand binding (ligand: prazosin); format: cell membranes, Wistar, Submaxillary gland, Membrane; conditions: Not Active = under 50% inhibition at 10 µM
T1 sequence (P43140 whole entry): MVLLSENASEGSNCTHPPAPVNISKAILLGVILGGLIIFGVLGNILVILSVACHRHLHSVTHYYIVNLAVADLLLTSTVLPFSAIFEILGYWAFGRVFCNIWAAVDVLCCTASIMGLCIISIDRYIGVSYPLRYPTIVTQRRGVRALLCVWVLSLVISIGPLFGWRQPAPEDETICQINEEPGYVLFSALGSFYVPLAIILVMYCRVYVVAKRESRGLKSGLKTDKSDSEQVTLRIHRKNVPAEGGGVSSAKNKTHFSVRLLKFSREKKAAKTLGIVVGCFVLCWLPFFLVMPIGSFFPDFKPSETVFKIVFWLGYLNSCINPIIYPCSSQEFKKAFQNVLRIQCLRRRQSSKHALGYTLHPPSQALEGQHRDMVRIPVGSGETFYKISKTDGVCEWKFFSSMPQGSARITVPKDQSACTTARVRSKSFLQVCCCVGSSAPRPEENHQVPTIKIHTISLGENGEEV

[2] = DRUGMATRIX: GABAA, Muscimol, Central radioligand binding (ligand: [3H] Muscimol); format: cell membranes, Rattus norvegicus, Wistar, Brain, Membrane; conditions: Not Active = under 50% inhibition at 10 µM
[3] = DRUGMATRIX: Glutamate, NMDA, Agonism radioligand binding (ligand: [3H] CGP-39653); format: cell membranes, Rattus norvegicus, Wistar, Cerebral cortex, Membrane; conditions: Not Active = under 50% inhibition at 10 µM
[4] = DRUGMATRIX: Leukotriene, BLT (LTB4) radioligand binding (ligand: [3H]LTB4); format: cell membranes, Membrane; conditions: u-937; Not Active = under 50% inhibition at 10 µM
Mu-type opioid receptor = Mu-type opioid receptor (Homo sapiens, UniProt P35372); assay: DRUGMATRIX: Opiate mu (OP3, MOP) radioligand binding (ligand: [3H] Diprenorphine); format: cell membranes, CHO-K1, Membrane; conditions: cho-k1; Not Active = under 50% inhibition at 10 µM
Mu-type opioid receptor, sequence (P35372 whole entry): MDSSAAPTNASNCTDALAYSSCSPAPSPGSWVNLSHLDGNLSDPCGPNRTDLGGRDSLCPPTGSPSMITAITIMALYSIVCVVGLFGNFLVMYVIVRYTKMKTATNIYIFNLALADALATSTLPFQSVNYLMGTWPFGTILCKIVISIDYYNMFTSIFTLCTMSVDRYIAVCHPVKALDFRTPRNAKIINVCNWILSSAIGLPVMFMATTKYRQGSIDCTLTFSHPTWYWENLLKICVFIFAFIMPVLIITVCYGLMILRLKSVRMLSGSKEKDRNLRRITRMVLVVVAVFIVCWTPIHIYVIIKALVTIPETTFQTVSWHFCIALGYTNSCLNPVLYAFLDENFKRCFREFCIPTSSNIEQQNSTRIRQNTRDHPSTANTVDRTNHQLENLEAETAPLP

Neutrophil elastase = target: T2, Neutrophil elastase (Homo sapiens, UniProt P08246); format: tissue-based;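 note: inhibition of neutrophil elastase enzyme activity, measured with a p-nitroanilide-linked peptide substrate; in other assays of this panel Not Active means under 50% inhibition at 10 µM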
T2 sequence (P08246 whole entry): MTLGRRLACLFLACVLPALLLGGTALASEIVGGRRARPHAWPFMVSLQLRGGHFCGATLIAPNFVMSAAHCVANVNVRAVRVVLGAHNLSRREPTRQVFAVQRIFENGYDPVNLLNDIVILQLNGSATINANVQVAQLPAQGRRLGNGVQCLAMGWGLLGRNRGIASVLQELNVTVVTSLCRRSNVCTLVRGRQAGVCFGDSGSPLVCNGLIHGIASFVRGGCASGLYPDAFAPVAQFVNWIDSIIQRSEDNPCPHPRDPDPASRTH

[5] = target: Epidermal growth factor receptor (Homo sapiens, UniProt P00533); assay: DRUGMATRIX: Protein Tyrosine Kinase, EGF Receptor enzyme inhibition (substrate: Poly(Glu:Tyr)); format: cell-based, Insect cells; conditions: Not Active = under 50% inhibition at 10 µM
Epidermal growth factor receptor, sequence (P00533 whole entry): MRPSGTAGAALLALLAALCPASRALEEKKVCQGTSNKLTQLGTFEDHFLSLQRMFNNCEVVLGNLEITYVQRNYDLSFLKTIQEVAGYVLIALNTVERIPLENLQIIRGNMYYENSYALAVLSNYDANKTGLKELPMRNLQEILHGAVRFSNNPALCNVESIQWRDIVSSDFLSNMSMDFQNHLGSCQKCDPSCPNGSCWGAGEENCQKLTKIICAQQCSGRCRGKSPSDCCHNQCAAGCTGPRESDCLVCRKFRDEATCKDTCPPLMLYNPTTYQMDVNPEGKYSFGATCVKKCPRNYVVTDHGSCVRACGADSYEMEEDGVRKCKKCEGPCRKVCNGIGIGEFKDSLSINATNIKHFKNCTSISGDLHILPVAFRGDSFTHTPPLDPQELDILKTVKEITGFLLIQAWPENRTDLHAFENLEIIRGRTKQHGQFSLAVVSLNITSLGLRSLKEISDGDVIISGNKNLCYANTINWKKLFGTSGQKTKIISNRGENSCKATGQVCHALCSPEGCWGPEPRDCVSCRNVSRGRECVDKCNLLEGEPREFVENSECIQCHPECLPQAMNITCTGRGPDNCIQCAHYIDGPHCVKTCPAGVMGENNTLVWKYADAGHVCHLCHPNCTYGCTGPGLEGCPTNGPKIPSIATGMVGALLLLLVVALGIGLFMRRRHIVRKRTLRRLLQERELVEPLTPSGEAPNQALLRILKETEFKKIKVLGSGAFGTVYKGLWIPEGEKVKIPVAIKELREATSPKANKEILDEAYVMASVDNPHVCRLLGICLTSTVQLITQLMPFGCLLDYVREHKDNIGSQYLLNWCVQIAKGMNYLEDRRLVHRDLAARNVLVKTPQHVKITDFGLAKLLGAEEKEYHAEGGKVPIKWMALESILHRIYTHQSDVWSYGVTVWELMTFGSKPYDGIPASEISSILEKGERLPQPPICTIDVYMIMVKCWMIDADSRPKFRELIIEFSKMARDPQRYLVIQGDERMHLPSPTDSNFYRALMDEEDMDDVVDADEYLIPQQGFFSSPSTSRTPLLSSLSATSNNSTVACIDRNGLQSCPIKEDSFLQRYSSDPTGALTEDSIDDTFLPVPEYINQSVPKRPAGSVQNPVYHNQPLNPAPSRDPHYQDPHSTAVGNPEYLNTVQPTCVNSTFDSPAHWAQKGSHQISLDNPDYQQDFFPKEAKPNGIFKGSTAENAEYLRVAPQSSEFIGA

Cytochrome P450 3A4 = Cytochrome P450 3A4 (Homo sapiens, UniProt P08684); conditions: bti-tn-5b1-4; note: in other assays of this panel Not Active means under 50% inhibition at 10 µM
Cytochrome P450 3A4, sequence (P08684 whole entry): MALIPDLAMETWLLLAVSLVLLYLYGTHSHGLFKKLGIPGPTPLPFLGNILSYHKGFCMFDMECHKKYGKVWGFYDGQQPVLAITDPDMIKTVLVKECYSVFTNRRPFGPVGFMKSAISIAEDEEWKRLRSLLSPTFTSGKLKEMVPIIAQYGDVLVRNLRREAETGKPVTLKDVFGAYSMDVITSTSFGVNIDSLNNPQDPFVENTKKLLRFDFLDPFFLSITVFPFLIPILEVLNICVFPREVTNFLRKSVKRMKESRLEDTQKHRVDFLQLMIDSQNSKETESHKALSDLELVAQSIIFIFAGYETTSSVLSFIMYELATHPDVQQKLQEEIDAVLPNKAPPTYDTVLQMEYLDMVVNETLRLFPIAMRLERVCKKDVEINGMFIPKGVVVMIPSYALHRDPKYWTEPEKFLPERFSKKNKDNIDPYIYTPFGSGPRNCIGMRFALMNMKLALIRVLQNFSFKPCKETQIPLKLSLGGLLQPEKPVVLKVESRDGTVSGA

| SMILES | IC50 [1] | IC50 [2] | Ki [2] | IC50 [3] | Ki [3] | IC50 [4] | Ki [4] | IC50 (Mu-type opioid receptor) | IC50 (Neutrophil elastase) | IC50 ([5]; insect cells) | IC50 (Cytochrome P450 3A4) | Ki (Cytochrome P450 3A4) | pIC50 ([5]; read-out: IC50) |
| --- | --- | --- | --- | --- | --- | --- | --- | --- | --- | --- | --- | --- | --- |
| CC(=O)O[C@H]1C[C@@H]2CC[C@@H]3[C@H](CC[C@@]4(C)[C@H]3C[C@H]([N+]3(C)CCCCC3)[C@@H]4OC(C)=O)[C@@]2(C)C[C@@H]1N1CCCCC1.[Br-] [VECURONIUM BROMIDE] | Not Active | Not Active | Not Active | Not Active | Not Active | Not Active | Not Active | Not Active | Not Active | Not Active | Not Active | Not Active | – |
| COc1cc(C(=O)NS(=O)(=O)c2ccccc2C)ccc1Cc1cn(C)c2ccc(NC(=O)OC3CCCC3)cc12 [ZAFIRLUKAST] | Not Active | Not Active | Not Active | Not Active | Not Active | Not Active | Not Active | Not Active | Not Active | – | Not Active | Not Active | 5.24 |
